Test results published in patent US20220306617A1, “SUBSTITUTED 1,3-PHENYL HETEROARYL DERIVATIVES AND THEIR USE IN THE TREATMENT OF DISEASE” (NOVARTIS AG, priority 2019, published 2022).

Biological target: T1, abc isoform of human TMEM16A channel expressed in CHO cells (Homo sapiens, UniProt Q5XXA6, DEL476-501)
T1 construct: expressed in transfected cells; host or cells: CHO cells, doxycycline-inducible expression under Blasticidin/Zeocin selection
T1 sequence (Q5XXA6 with tags, fused parts or gaps isoform Q5XXA6-5 DEL539-564): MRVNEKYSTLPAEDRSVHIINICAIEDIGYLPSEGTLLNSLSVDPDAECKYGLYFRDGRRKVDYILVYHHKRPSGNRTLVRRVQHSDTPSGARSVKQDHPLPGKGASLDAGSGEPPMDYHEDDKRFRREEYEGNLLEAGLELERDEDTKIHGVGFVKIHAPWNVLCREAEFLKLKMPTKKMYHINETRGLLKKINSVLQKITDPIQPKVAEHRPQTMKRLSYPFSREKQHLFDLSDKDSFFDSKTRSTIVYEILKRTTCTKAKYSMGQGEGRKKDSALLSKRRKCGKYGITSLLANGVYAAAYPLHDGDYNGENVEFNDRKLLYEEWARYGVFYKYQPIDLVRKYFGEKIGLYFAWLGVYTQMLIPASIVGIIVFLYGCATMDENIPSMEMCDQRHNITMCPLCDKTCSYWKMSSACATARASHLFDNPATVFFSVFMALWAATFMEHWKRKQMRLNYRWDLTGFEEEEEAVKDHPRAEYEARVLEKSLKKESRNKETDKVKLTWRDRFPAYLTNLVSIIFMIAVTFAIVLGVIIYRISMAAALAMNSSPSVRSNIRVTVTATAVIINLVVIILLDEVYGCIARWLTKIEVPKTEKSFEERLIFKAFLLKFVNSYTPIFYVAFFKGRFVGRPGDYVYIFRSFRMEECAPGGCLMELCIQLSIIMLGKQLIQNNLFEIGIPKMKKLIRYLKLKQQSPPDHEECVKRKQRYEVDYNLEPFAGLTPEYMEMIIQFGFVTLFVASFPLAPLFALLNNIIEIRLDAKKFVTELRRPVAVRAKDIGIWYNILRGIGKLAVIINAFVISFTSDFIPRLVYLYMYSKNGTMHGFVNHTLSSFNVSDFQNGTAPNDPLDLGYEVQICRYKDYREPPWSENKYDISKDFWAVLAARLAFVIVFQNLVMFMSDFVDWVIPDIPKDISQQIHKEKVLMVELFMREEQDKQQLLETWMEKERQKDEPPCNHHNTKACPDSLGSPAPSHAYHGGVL
Test: Automated patch clamping (QPatch) assay to measure TMEM16A activity in whole-cell
Assay type: cell-based
Conditions: for EC50: CHO cells expressing human TMEM16A (abc), whole-cell automated patch clamp, Hill fit, read-out: TMEM16A QPATCH assay EC50 V3 EC50; for Emax: CHO, maximum current at highest dose relative to reference potentiator at maximal concentration (upper limit) and vehicle (lower limit), read-out: TMEM16A QPATCH assay EC50 V3 Assay Window (% TMEM16A max activation)
Outline: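 Whole-cell currents were recorded by planar automated patch clamp from induced CHO cells (doxycycline 1 μg/mL, 18-24 h), using a −70 mV hold, +70 mV step and −90 to +70 mV ramp. Values: Hill-fitted EC50, and activation scaled between vehicle current and reference-potentiator maximum; 0.3% DMSO final.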

SMILES	EC50	Emax
CCC(CC)NC(=O)c1cc(-c2cccc(-c3ncc(C(=O)N[C@@H](C)c4ccccc4)o3)c2)[nH]n1 [Example 1.21, (S)-2-(3-(3-(Pentan-3-Ylcarbamoyl)-1H-Pyrazol-5-Yl)Phenyl)-N-(1-Phenylethyl)Oxazole-5-Carboxamide]	930 nM	92%
CCC(CC)NC(=O)c1cc(-c2cccc(-c3ncc(C(=O)Nc4cccc(C#N)c4)o3)c2)[nH]n1 [Example 1.27, N-(3-Cyanophenyl)-2-(3-(3-(Pentan-3-Ylcarbamoyl)-1 H-Pyrazol-5-yl)Phenyl)Oxazole-5-Carboxamide]	920 nM	86%
CCC(CC)NC(=O)c1cc(-c2cccc(-c3ncc(C(=O)N[C@H](C(=O)OC(C)(C)C)C(C)C)o3)c2)[nH]n1 [Example 1.9, (S)-Tert-Butyl 3-Methyl-2-(2-(3-(3-(Pentan-3-Ylcarbamoyl)-1H-Pyrazol-5-yl)Phenyl)Oxazole-5-Carboxamido)Butanoate]	30 nM	146%
COC(=O)[C@@H](NC(=O)c1cnc(-c2cccc(-c3cc(C(=O)N[C@@H](C)C4CC4)n[nH]3)c2)o1)C(C)C [Example 1.7, (S)-Methyl 2-(2-(3-(3-(((S)-1-Cyclopropylethyl)Carbamoyl)-1H-Pyrazol-5-yl)Phenyl)Oxazole-5-Carboxamido)-3-Methylbutanoate]	90 nM	69%

Second part, the molecule after the results:

EC50	Emax	SMILES
90 nM	95%	CCOC(=O)CCCn1nc(-c2cccc(-c3ncc(C(=O)NC(CC)CC)o3)c2)nc1C(=O)NC(CC)CC [Example 15.8, Ethyl 4-(5-(Pentan-3-Ylcarbamoyl)-3-(3-(5-(Pentan-3-Ylcarbamoyl)Oxazol-2-Yl)Phenyl)-1H-1,2,4-Triazol-1-Yl)Butanoate]
800 nM	80%	CCC(CC)NC(=O)c1cnc(-c2cccc(-c3cc(C(=O)N[C@H](CCSC)C(=O)OC)n[nH]3)c2)o1 [Example 3.46, (R)-Methyl 4-(Methylthio)-2-(5-(3-(5-(Pentan-3-Ylcarbamoyl)Oxazol-2-yl)Phenyl)-1H-Pyrazole-3-Carboxamido)Butanoate]
880 nM	66%	CCC(CC)NC(=O)c1cc(-c2cccc(-c3ncc(C(=O)N[C@@H](C(=O)OC)c4ccccc4)o3)c2)[nH]n1 [Example 1.39, (R)-Methyl 2-(2-(3-(3-(Pentan-3-Ylcarbamoyl)-1H-Pyrazol-5-yl)Phenyl)Oxazole-5-Carboxamido)-2-Phenylacetate]
310 nM	74%	C[C@H](NC(=O)c1cnc(-c2cccc(-c3nnc(C(=O)N[C@H](C)C4CC4)[nH]3)c2)o1)C1CC1 [Example 13.0, N-((S)-1-Cyclopropylethyl)-2-(3-(5-(((R)-1-Cyclopropylethyl)Carbamoyl)-4H-1,2,4-Triazol-3-Yl)Phenyl)Oxazole-5-Carboxamide]
320 nM	125%	CCC(CC)NC(=O)c1cnc(-c2cccc(-c3cc(C(=O)N[C@H](C)C4CC4)n(CCO)n3)c2)o1 [Example 5.1, (R)-2-(3-(5-((1-Cyclopropylethyl)Carbamoyl)-1-(2-Hydroxyethyl)-1H-Pyrazol-3-Yl)Phenyl)-N-(Pentan-3-Yl)Oxazole-5-Carboxamide]
10 nM	113%	COC(=O)[C@@H](NC(=O)c1cnc(-c2cccc(-c3cc(C(=O)NC(C4CC4)C4CC4)[nH]n3)c2)o1)C(C)C [Example 1.29, (S)-Methyl 2-(2-(3-(5-((Dicyclopropylmethyl)Carbamoyl)-1 H-Pyrazol-3-yl)Phenyl)Oxazole-5-Carboxamido)-3-Methylbutanoate]
